Laboratory results taken from patent US8492413B2, “Pharmaceutical combination of 5-fluorouracil and derivate of 1,4-dihydropyridine and its use in the treatment of cancer” (priority 2009, dated 2013).
Where a name gives a salt, the structure may show the parent alone. Read-outs that look alike come from different tables or passages of the source. Each block holds one compound with its values, some of them ahead of it.

Columns and labels:
[1] = system: human breast cancer cells MDA-MB-435s; assay: Cell viability of MDA-MB-435s cells, crystal violet staining assay, 72 h exposure; format: cell-based; details: for IC50: 72 h, read-out: IC50 (concentration causing 50% cell viability decrease), compound alone
Protocol: Cell viability was measured using modified crystal violet staining (CVS) assay as described in [[…] et al., 1985]. In brief, cells were fixed with 1% glutaraldehyde for 15 minutes, washed with water and stained with 0.05% crystal violet for 15 minutes at room temperature. After removal of residual crystal violet by washing with tap water the crystal violet stain was eluted with ethanol sodium citrate (1:1) buffer, and absorbance at 540 nm was measured using a microplate reader. The IC50 values, corresponding to concentrations of compounds that cause 50% cell viability decrease, were calculated for individual compounds and their combinations and are summarized in Table 1.

[2] = system: leukaemia P388, murine sarcoma 37 and Walker's carcinosarcome; details: cited from earlier work

SMILES: CCC1C(C(=O)OCC(=O)O)=C(C)NC(C)=C1C(=O)OCC(=O)O [disodium salt of 4-ethyl-2,6-dimethyl-1,4-dihydropyridine-3,5-bis-carbonyloxyacetic acid]
IC50 ([1]; Homo sapiens, MDA-MB-435S): > 2100 µM

SMILES: CC1=C(C(=O)OCC(=O)[O-])CC(C(=O)OCC(=O)[O-])=C(C)N1.[Na+].[Na+] [Carbatone, Disodium salt of carboxylate-methyl ester of 2,6-dimethyl-1,4-dihydropyridine-3,5-dicarboxylic acid]
Effect on the cytotoxic effect of 5-FU (in words) ([1]; combined treatment with 5-FU, MDA-MB-435s): synergistically potentiates the cytotoxic effect of 5-FU | IC50 ([1]; single agent, MDA-MB-435s): 1320 µM | Effect on cytostatic activity of cyclophosphane, 5-fluorouracil and arabisosyl cytosine ([2]; against leukaemia P388, murine sarcoma 37 and Walker's carcinosarcome): potentiates the cytostatic activity | Antitumour activity of the compound itself ([2]; alone): exhibited no antitumour activity | Effect on cyclophosphane toxicity ([2]; mice): decreasing the cyclophosphane toxicity

SMILES: CC1=C(C(=O)OCC(=O)O)C(C)C(C(=O)OCC(=O)O)=C(C)N1 [disodium salt of 2,4,6-trimethyl-1,4-dihydropyridine-3,5-bis-carbonyloxyacetic acid]
IC50 ([1]; Homo sapiens, MDA-MB-435S): > 2690 µM

IC50 ([1]; Homo sapiens, single agent, MDA-MB-435s): 30 µM
SMILES: O=c1[nH]cc(F)c(=O)[nH]1 [Example 5-FU, 5-Fluorouracil]
